Consider 17 molecules from ChEMBL document CHEMBL3046216, “Synthesis, biological evaluation and QSAR study of a series of substituted quinazolines as antimicrobial agents” (2013).

Values after ≈ are worked out from the molar mass of the structure shown. Active and inactive are the calls of the source. The calls are words filed in the database; no cut-off is given here.

Type in all cases: functional
The test system of one test is Bacillus subtilis. The test can be described thus: Antimicrobial activity against Bacillus subtilis ATCC 6633 assessed as growth inhibition after 24 hr by NCCLS broth dilution method. Background: Dilution methods test growth across graded concentrations, often in twofold steps.
A further test concerns Staphylococcus aureus. The test can be described thus: Antimicrobial activity against Staphylococcus aureus ATCC 25923 assessed as growth inhibition after 24 hr by NCCLS broth dilution method.
The test system of a further test is Escherichia coli. The test can be described thus: Antimicrobial activity against Escherichia coli ATCC 25922 assessed as growth inhibition after 24 hr by NCCLS broth dilution method.
A further test deals with Pseudomonas aeruginosa. Put plainly: Antimicrobial activity against Pseudomonas aeruginosa ATCC 27853 assessed as growth inhibition after 24 hr by NCCLS broth dilution method.

On to `CN1CCN(c2cc3ncnc(Sc4nnc(-c5cccnc5)o4)c3cc2NC(=O)Nc2ccccc2)CC1`, for which the MIC entry in the test on Bacillus subtilis, in the test on Staphylococcus aureus, in the test on Escherichia coli and in the test with Pseudomonas aeruginosa was “inactive” each time. Further, the minimal inhibitory concentration (MIC) – broadly, the lowest concentration that inhibits growth of the organism – came to 12.5 µg/mL (≈ 23.2 µM) in the test on Bacillus subtilis (ATCC 6633, 24 h); 25 µg/mL (≈ 46.3 µM) with Staphylococcus aureus (ATCC 25923, 24 h); 25 µg/mL (≈ 46.3 µM) in the test with Escherichia coli (ATCC 25922, 24 h); 50 µg/mL (≈ 92.7 µM) in the test on Pseudomonas aeruginosa (ATCC 27853, 24 h).
For `CN1CCN(c2cc3ncnc(Sc4nnc(-c5cccnc5)o4)c3cc2NC(=O)Nc2ccc(Cl)cc2)CC1`, the MIC result with Bacillus subtilis, in the test with Staphylococcus aureus, in the test on Escherichia coli and in the test on Pseudomonas aeruginosa was “inactive” throughout. The MIC with Bacillus subtilis (ATCC 6633, 24 h) amounted to 6.25 µg/mL (≈ 10.9 µM); in the test on Staphylococcus aureus (ATCC 25923, 24 h), 25 µg/mL (≈ 43.5 µM); in the test with Escherichia coli (ATCC 25922, 24 h), 12.5 µg/mL (≈ 21.8 µM); with Pseudomonas aeruginosa (ATCC 27853, 24 h), 50 µg/mL (≈ 87.1 µM).
Consider `Cc1ccc(NC(=O)Nc2cc3c(Sc4nnc(-c5cccnc5)o4)ncnc3cc2N2CCN(C)CC2)cc1`, for which the MIC result in the test with Bacillus subtilis, in the test with Staphylococcus aureus, in the test on Escherichia coli and in the test on Pseudomonas aeruginosa was “inactive” throughout. Also, the MIC in the test with Bacillus subtilis (ATCC 6633, 24 h) was determined as 12.5 µg/mL (≈ 22.6 µM); with Staphylococcus aureus (ATCC 25923, 24 h) it was 25 µg/mL (≈ 45.2 µM); in the test with Escherichia coli (ATCC 25922, 24 h), 50 µg/mL (≈ 90.3 µM); with Pseudomonas aeruginosa (ATCC 27853, 24 h) it was 50 µg/mL (≈ 90.3 µM).
`CN1CCN(c2cc3ncnc(Sc4nnc(-c5cccnc5)o4)c3cc2NC(=O)NC2CCCCC2)CC1`: the MIC result in the test on Bacillus subtilis, in the test on Staphylococcus aureus, in the test with Escherichia coli and in the test on Pseudomonas aeruginosa was “inactive” in each case. Besides, the MIC in the test on Bacillus subtilis (ATCC 6633, 24 h) is 12.5 µg/mL (≈ 22.9 µM); in the test on Staphylococcus aureus (ATCC 25923, 24 h), 50 µg/mL (≈ 91.6 µM); with Escherichia coli (ATCC 25922, 24 h), 25 µg/mL (≈ 45.8 µM); in the test with Pseudomonas aeruginosa (ATCC 27853, 24 h), 50 µg/mL (≈ 91.6 µM).
As to `Cc1cccc(NC(=O)Nc2ccc3ncnc(Sc4nnc(-c5cccnc5)o4)c3c2)c1`, the MIC result in the test on Bacillus subtilis, in the test with Staphylococcus aureus, in the test with Escherichia coli and with Pseudomonas aeruginosa was “inactive” in each case. For the same molecule, the MIC in the test on Bacillus subtilis (ATCC 6633, 24 h) stood at 25 µg/mL (≈ 54.9 µM); with Staphylococcus aureus (ATCC 25923, 24 h) it was 25 µg/mL (≈ 54.9 µM); in the test with Escherichia coli (ATCC 25922, 24 h) it was 12.5 µg/mL (≈ 27.4 µM); with Pseudomonas aeruginosa (ATCC 27853, 24 h), 50 µg/mL (≈ 110 µM).
Regarding `O=C(Nc1ccc(Cl)cc1)Nc1ccc2ncnc(Sc3nnc(-c4cccnc4)o3)c2c1`, the MIC result in the test on Bacillus subtilis, with Staphylococcus aureus, in the test with Escherichia coli and in the test on Pseudomonas aeruginosa was “inactive” throughout. Also, the MIC in the test on Bacillus subtilis (ATCC 6633, 24 h) was 12.5 µg/mL (≈ 26.3 µM); with Staphylococcus aureus (ATCC 25923, 24 h), 6.25 µg/mL (≈ 13.1 µM); in the test on Escherichia coli (ATCC 25922, 24 h), 75 µg/mL (≈ 158 µM); with Pseudomonas aeruginosa (ATCC 27853, 24 h), 25 µg/mL (≈ 52.5 µM).
In the case of `Cc1ccccc1NC(=S)Nc1cc2c(Sc3nnc(-c4cccnc4)o3)ncnc2cc1N1CCN(C)CC1`, the MIC entry with Bacillus subtilis, with Staphylococcus aureus, in the test with Escherichia coli and in the test with Pseudomonas aeruginosa was “inactive” throughout. For the same molecule, the MIC came out at 75 µg/mL (≈ 132 µM) with Bacillus subtilis (ATCC 6633, 24 h); 50 µg/mL (≈ 87.8 µM) in the test on Staphylococcus aureus (ATCC 25923, 24 h); 100 µg/mL (≈ 176 µM) in the test on Escherichia coli (ATCC 25922, 24 h); 25 µg/mL (≈ 43.9 µM) with Pseudomonas aeruginosa (ATCC 27853, 24 h).
Turning to `CN1CCN(c2cc3ncnc(Sc4nnc(-c5cccnc5)o4)c3cc2NC(=O)Nc2ccc(-c3ccccc3)cc2)CC1`, the MIC result in the test with Bacillus subtilis, with Staphylococcus aureus, in the test on Escherichia coli and in the test with Pseudomonas aeruginosa was “inactive” each time. The MIC in the test on Bacillus subtilis (ATCC 6633, 24 h) came out at 100 µg/mL (≈ 162 µM); in the test on Staphylococcus aureus (ATCC 25923, 24 h) it was 25 µg/mL (≈ 40.6 µM); with Escherichia coli (ATCC 25922, 24 h), 50 µg/mL (≈ 81.2 µM); in the test on Pseudomonas aeruginosa (ATCC 27853, 24 h) it was 25 µg/mL (≈ 40.6 µM).
As for `S=C(Nc1ccccc1)Nc1ccc2ncnc(Sc3nnc(-c4cccnc4)o3)c2c1`, the MIC result in the test with Bacillus subtilis, in the test with Staphylococcus aureus, in the test with Escherichia coli and with Pseudomonas aeruginosa was “inactive” each time. The MIC in the test with Bacillus subtilis (ATCC 6633, 24 h) amounted to 75 µg/mL (≈ 164 µM); in the test on Staphylococcus aureus (ATCC 25923, 24 h), 50 µg/mL (≈ 109 µM); in the test on Escherichia coli (ATCC 25922, 24 h), 50 µg/mL (≈ 109 µM); with Pseudomonas aeruginosa (ATCC 27853, 24 h), 100 µg/mL (≈ 219 µM).
Consider `CC1(C)S[C@@H]2[C@H](NC(=O)Cc3ccccc3)C(=O)N2[C@H]1C(=O)O` [PENICILLIN G], for which the MIC entry in the test with Bacillus subtilis, with Staphylococcus aureus, in the test on Escherichia coli and in the test on Pseudomonas aeruginosa was “inactive” throughout. In addition, the MIC in the test on Bacillus subtilis (ATCC 6633, 24 h) worked out at 1.56 µg/mL (≈ 4.67 µM); in the test on Staphylococcus aureus (ATCC 25923, 24 h), 1.56 µg/mL (≈ 4.67 µM); in the test on Escherichia coli (ATCC 25922, 24 h), 6.25 µg/mL (≈ 18.7 µM); with Pseudomonas aeruginosa (ATCC 27853, 24 h) it was 12.5 µg/mL (≈ 37.4 µM).
In the case of `CC1(C)S[C@@H]2[C@H](NC(=O)[C@H](N)c3ccccc3)C(=O)N2[C@H]1C(=O)O.O.O.O` [AMPICILLIN TRIHYDRATE], the MIC entry in the test with Bacillus subtilis, in the test with Staphylococcus aureus, in the test on Escherichia coli and in the test on Pseudomonas aeruginosa was “inactive” throughout. The MIC in the test with Bacillus subtilis (ATCC 6633, 24 h) stood at 0.25 µg/mL; in the test on Staphylococcus aureus (ATCC 25923, 24 h), 0.05 µg/mL; in the test on Escherichia coli (ATCC 25922, 24 h) it was 10 µg/mL.
For `S=C(Nc1ccc(Cl)cc1)Nc1ccc2ncnc(Sc3nnc(-c4cccnc4)o3)c2c1`, the MIC result in the test with Bacillus subtilis, in the test with Staphylococcus aureus, in the test with Escherichia coli and with Pseudomonas aeruginosa was “inactive” throughout. In addition, the minimal inhibitory concentration (MIC) in the test on Bacillus subtilis (ATCC 6633, 24 h) was 12.5 µg/mL (≈ 25.4 µM); in the test with Staphylococcus aureus (ATCC 25923, 24 h), 25 µg/mL (≈ 50.8 µM); in the test with Escherichia coli (ATCC 25922, 24 h) it was 25 µg/mL (≈ 50.8 µM); in the test on Pseudomonas aeruginosa (ATCC 27853, 24 h) it was 100 µg/mL (≈ 203 µM).
Regarding `Cc1cccc(NC(=S)Nc2cc3c(Sc4nnc(-c5cccnc5)o4)ncnc3cc2N2CCN(C)CC2)c1`, the MIC result in the test with Bacillus subtilis, in the test on Staphylococcus aureus, in the test on Escherichia coli and with Pseudomonas aeruginosa was “inactive” each time. Further, the MIC stood at 25 µg/mL (≈ 43.9 µM) in the test with Bacillus subtilis (ATCC 6633, 24 h); 50 µg/mL (≈ 87.8 µM) in the test with Staphylococcus aureus (ATCC 25923, 24 h); 25 µg/mL (≈ 43.9 µM) in the test with Escherichia coli (ATCC 25922, 24 h); 100 µg/mL (≈ 176 µM) with Pseudomonas aeruginosa (ATCC 27853, 24 h).
Take `Cc1ccccc1NC(=S)Nc1ccc2ncnc(Sc3nnc(-c4cccnc4)o3)c2c1`: the MIC result with Bacillus subtilis, in the test with Staphylococcus aureus, with Escherichia coli and in the test with Pseudomonas aeruginosa was “inactive” each time. The MIC in the test with Bacillus subtilis (ATCC 6633, 24 h) amounted to 50 µg/mL (≈ 106 µM); with Staphylococcus aureus (ATCC 25923, 24 h) it was 75 µg/mL (≈ 159 µM); in the test with Escherichia coli (ATCC 25922, 24 h), 25 µg/mL (≈ 53 µM); with Pseudomonas aeruginosa (ATCC 27853, 24 h), 100 µg/mL (≈ 212 µM).
Take `CN1CCN(c2cc3ncnc(Sc4nnc(-c5cccnc5)o4)c3cc2NC(=O)Nc2cccc(Cl)c2)CC1`: the MIC result in the test on Bacillus subtilis, in the test with Staphylococcus aureus, with Escherichia coli and in the test on Pseudomonas aeruginosa was “inactive” each time. The MIC with Bacillus subtilis (ATCC 6633, 24 h) is 12.5 µg/mL (≈ 21.8 µM); in the test on Staphylococcus aureus (ATCC 25923, 24 h), 6.25 µg/mL (≈ 10.9 µM); in the test with Escherichia coli (ATCC 25922, 24 h) it was 50 µg/mL (≈ 87.1 µM); in the test with Pseudomonas aeruginosa (ATCC 27853, 24 h), 25 µg/mL (≈ 43.5 µM).
Regarding `O=C(Nc1ccc2ncnc(Sc3nnc(-c4cccnc4)o3)c2c1)Nc1ccccc1Cl`, the MIC entry in the test with Bacillus subtilis, with Staphylococcus aureus, in the test on Escherichia coli and in the test with Pseudomonas aeruginosa was “inactive” throughout. For the same molecule, the MIC in the test on Bacillus subtilis (ATCC 6633, 24 h) turned out to be 12.5 µg/mL (≈ 26.3 µM); in the test with Staphylococcus aureus (ATCC 25923, 24 h) it was 25 µg/mL (≈ 52.5 µM); with Escherichia coli (ATCC 25922, 24 h), 25 µg/mL (≈ 52.5 µM); in the test on Pseudomonas aeruginosa (ATCC 27853, 24 h), 75 µg/mL (≈ 158 µM).
As for `Cc1ccc(NC(=S)Nc2cc3c(Sc4nnc(-c5cccnc5)o4)ncnc3cc2N2CCN(C)CC2)cc1`, the MIC result in the test with Bacillus subtilis, in the test on Staphylococcus aureus, in the test on Escherichia coli and in the test with Pseudomonas aeruginosa was “inactive” throughout. Further, the MIC stood at 50 µg/mL (≈ 87.8 µM) with Bacillus subtilis (ATCC 6633, 24 h); 12.5 µg/mL (≈ 21.9 µM) in the test on Staphylococcus aureus (ATCC 25923, 24 h); 50 µg/mL (≈ 87.8 µM) with Escherichia coli (ATCC 25922, 24 h); 50 µg/mL (≈ 87.8 µM) with Pseudomonas aeruginosa (ATCC 27853, 24 h).
